Measured values: PubChem BioAssay AID2060333 (Molecular Pharmacology Branch, DTP, NCI, 2025)

Tested on: 845751-090-R-J2-PDC tumor spheroid viability
Assay: Anticancer human tumor 845751-090-R-J2-PDC patient-derived head and neck squamous carcinoma cell line growth inhibition [IpAb]
Details: spheroids with HUVEC and MSC; for IC50: curve of first compound; for viability, T/C: stronger effect = lower value
Procedure, shortened: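 Combinations with ipatasertib or abemaciclib were tested on tumour spheroids holding HUVEC (25%) and MSC (15%) alongside 60% malignant cells. Top concentration was at or near clinical Cmax (10 microM if undefined), descending in half-log steps.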

[1] = second compound 0.1 µM, first compound 0.0316 µM
[2] = second compound 0.1 µM, first compound 0.1 µM
[3] = second compound 0.1 µM, first compound 0.316 µM
[4] = second compound 0.1 µM, first compound 1 µM
[5] = second compound 0.316 µM, first compound 0.0316 µM
[6] = second compound 0.316 µM, first compound 0.1 µM
[7] = second compound 0.316 µM, first compound 0.316 µM
[8] = second compound 0.316 µM, first compound 1 µM
[9] = second compound 1 µM, first compound 0.0316 µM
[10] = second compound 1 µM, first compound 0.1 µM
[11] = second compound 1 µM, first compound 0.316 µM
[12] = second compound 1 µM, first compound 1 µM
[13] = second compound 3.16 µM, first compound 0.0316 µM
[14] = second compound 3.16 µM, first compound 0.1 µM
[15] = second compound 3.16 µM, first compound 0.316 µM
[16] = second compound 3.16 µM, first compound 1 µM
[17] = second compound 10 µM, first compound 0.0316 µM
[18] = second compound 10 µM, first compound 0.1 µM
[19] = second compound 10 µM, first compound 0.316 µM
[20] = second compound 10 µM, first compound 1 µM
[21] = second compound 0.1 µM, first compound 3.16 µM
[22] = second compound 0.1 µM, first compound 10 µM
[23] = second compound 0.316 µM, first compound 3.16 µM
[24] = second compound 0.316 µM, first compound 10 µM
[25] = second compound 1 µM, first compound 3.16 µM
[26] = second compound 1 µM, first compound 10 µM
[27] = second compound 3.16 µM, first compound 3.16 µM
[28] = second compound 3.16 µM, first compound 10 µM
[29] = second compound 10 µM, first compound 3.16 µM
[30] = second compound 10 µM, first compound 10 µM
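Further: spheroids exposed to compounds for 7 days before readout.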
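Wherever viability, T/C is given: CTG3D luminescence normalised so that 100% = DMSO vehicle control.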

## CC(=O)c1c(C)c2cnc(Nc3ccc(N4CCNCC4)cn3)nc2n(C2CCCC2)c1=O + CC(C)NCC(C(=O)N1CCN(c2ncnc3c2C(C)CC3O)CC1)c1ccc(Cl)cc1
Second compound 0.1 µM
  IC50: > 300 nM
Second compound 0.316 µM
  IC50: < 0.949 nM
Second compound 1 µM
  IC50: < 0.949 nM
Second compound 3.16 µM
  IC50: < 0.949 nM
Second compound 10 µM
  IC50: < 0.949 nM
Second compound 0.1 µM, first compound 0.000949 µM
  viability, T/C: 62.6%
Second compound 0.1 µM, first compound 0.003 µM
  viability, T/C: 64.7%
Second compound 0.1 µM, first compound 0.00949 µM
  viability, T/C: 51.6%
Second compound 0.1 µM, first compound 0.03 µM
  viability, T/C: 53.5%
Second compound 0.1 µM, first compound 0.0949 µM
  viability, T/C: 71.8%
Second compound 0.1 µM, first compound 0.3 µM
  viability, T/C: 68.5%
Second compound 0.316 µM, first compound 0.000949 µM
  viability, T/C: 39.1%
Second compound 0.316 µM, first compound 0.003 µM
  viability, T/C: 33.9%
Second compound 0.316 µM, first compound 0.00949 µM
  viability, T/C: 32.4%
Second compound 0.316 µM, first compound 0.03 µM
  viability, T/C: 28.6%
Second compound 0.316 µM, first compound 0.0949 µM
  viability, T/C: 28.4%
Second compound 0.316 µM, first compound 0.3 µM
  viability, T/C: 34.1%
Second compound 1 µM, first compound 0.000949 µM
  viability, T/C: 26.6%
Second compound 1 µM, first compound 0.003 µM
  viability, T/C: 29.3%
Second compound 1 µM, first compound 0.00949 µM
  viability, T/C: 24.1%
Second compound 1 µM, first compound 0.03 µM
  viability, T/C: 34.8%
Second compound 1 µM, first compound 0.0949 µM
  viability, T/C: 37.3%
Second compound 1 µM, first compound 0.3 µM
  viability, T/C: 22.9%
Second compound 3.16 µM, first compound 0.000949 µM
  viability, T/C: 29.4%
Second compound 3.16 µM, first compound 0.003 µM
  viability, T/C: 26.1%
Second compound 3.16 µM, first compound 0.00949 µM
  viability, T/C: 26.2%
Second compound 3.16 µM, first compound 0.03 µM
  viability, T/C: 26.6%
Second compound 3.16 µM, first compound 0.0949 µM
  viability, T/C: 18%
Second compound 3.16 µM, first compound 0.3 µM
  viability, T/C: 21.7%
Second compound 10 µM, first compound 0.000949 µM
  viability, T/C: 16.4%
Second compound 10 µM, first compound 0.003 µM
  viability, T/C: 15.8%
Second compound 10 µM, first compound 0.00949 µM
  viability, T/C: 13.7%
Second compound 10 µM, first compound 0.03 µM
  viability, T/C: 13.8%
Second compound 10 µM, first compound 0.0949 µM
  viability, T/C: 11.3%
Second compound 10 µM, first compound 0.3 µM
  viability, T/C: 11.5%

## COc1c(OCCCN2CCOCC2)ccc2c3n(c(=NC(=O)c4cnc(N)nc4)nc12)CCN3 + CC(C)NCC(C(=O)N1CCN(c2ncnc3c2C(C)CC3O)CC1)c1ccc(Cl)cc1
Second compound 0.1 µM
  IC50: 7.18 nM
Second compound 0.316 µM
  IC50: < 3.16 nM
Second compound 1 µM
  IC50: < 3.16 nM
Second compound 3.16 µM
  IC50: < 3.16 nM
Second compound 10 µM
  IC50: < 3.16 nM
Second compound 0.1 µM, first compound 0.00316 µM
  viability, T/C: 60.9%
Second compound 0.1 µM, first compound 0.01 µM
  viability, T/C: 46.1%
[1]
  viability, T/C: 32.1%
[2]
  viability, T/C: 19.5%
[3]
  viability, T/C: 16.5%
[4]
  viability, T/C: 3.52%
Second compound 0.316 µM, first compound 0.00316 µM
  viability, T/C: 26.4%
Second compound 0.316 µM, first compound 0.01 µM
  viability, T/C: 27.3%
[5]
  viability, T/C: 38.4%
[6]
  viability, T/C: 17%
[7]
  viability, T/C: 9.83%
[8]
  viability, T/C: 5.73%
Second compound 1 µM, first compound 0.00316 µM
  viability, T/C: 34.6%
Second compound 1 µM, first compound 0.01 µM
  viability, T/C: 21.8%
[9]
  viability, T/C: 17.1%
[10]
  viability, T/C: 9.67%
[11]
  viability, T/C: 5.4%
[12]
  viability, T/C: 2.49%
Second compound 3.16 µM, first compound 0.00316 µM
  viability, T/C: 22.5%
Second compound 3.16 µM, first compound 0.01 µM
  viability, T/C: 21.9%
[13]
  viability, T/C: 17.7%
[14]
  viability, T/C: 7.76%
[15]
  viability, T/C: 3.93%
[16]
  viability, T/C: 2.76%
Second compound 10 µM, first compound 0.00316 µM
  viability, T/C: 17.4%
Second compound 10 µM, first compound 0.01 µM
  viability, T/C: 17.7%
[17]
  viability, T/C: 13.4%
[18]
  viability, T/C: 5.23%
[19]
  viability, T/C: 2.57%
[20]
  viability, T/C: 1.62%

## Cc1nc(NC(=O)N2CCCC2C(N)=O)sc1-c1ccnc(C(C)(C)C(F)(F)F)c1 (stereo not given) + CC(C)NCC(C(=O)N1CCN(c2ncnc3c2C(C)CC3O)CC1)c1ccc(Cl)cc1
Second compound 0.1 µM
  IC50: 108 nM
Second compound 0.316 µM
  IC50: < 31.6 nM
Second compound 1 µM
  IC50: < 31.6 nM
Second compound 3.16 µM
  IC50: < 31.6 nM
Second compound 10 µM
  IC50: < 31.6 nM
[1]
  viability, T/C: 49.2%
[2]
  viability, T/C: 54%
[3]
  viability, T/C: 27.6%
[4]
  viability, T/C: 19.2%
[21]
  viability, T/C: 15.5%
[22]
  viability, T/C: 8.29%
[5]
  viability, T/C: 24.5%
[6]
  viability, T/C: 30.9%
[7]
  viability, T/C: 20.9%
[8]
  viability, T/C: 15.6%
[23]
  viability, T/C: 13.1%
[24]
  viability, T/C: 7.03%
[9]
  viability, T/C: 17.4%
[10]
  viability, T/C: 21.7%
[11]
  viability, T/C: 18%
[12]
  viability, T/C: 13.8%
[25]
  viability, T/C: 10.6%
[26]
  viability, T/C: 7.97%
[13]
  viability, T/C: 16%
[14]
  viability, T/C: 15.8%
[15]
  viability, T/C: 14.1%
[16]
  viability, T/C: 12.7%
[27]
  viability, T/C: 9.92%
[28]
  viability, T/C: 7.77%
[17]
  viability, T/C: 13.9%
[18]
  viability, T/C: 13.1%
[19]
  viability, T/C: 17.2%
[20]
  viability, T/C: 12%
[29]
  viability, T/C: 9.58%
[30]
  viability, T/C: 5.74%

## Cn1nccc1Nc1nccc(-c2ccn(C(CO)c3ccc(Cl)c(F)c3)c(=O)c2)n1 (stereo not given) + CC(C)NCC(C(=O)N1CCN(c2ncnc3c2C(C)CC3O)CC1)c1ccc(Cl)cc1
Second compound 0.1 µM
  IC50: 558 nM
Second compound 0.316 µM
  IC50: < 31.6 nM
Second compound 1 µM
  IC50: < 31.6 nM
Second compound 3.16 µM
  IC50: < 31.6 nM
Second compound 10 µM
  IC50: < 31.6 nM
[1]
  viability, T/C: 65.5%
[2]
  viability, T/C: 66.5%
[3]
  viability, T/C: 57.9%
[4]
  viability, T/C: 41.6%
[21]
  viability, T/C: 44.1%
[22]
  viability, T/C: 35.8%
[5]
  viability, T/C: 45.6%
[6]
  viability, T/C: 40.6%
[7]
  viability, T/C: 24.3%
[8]
  viability, T/C: 14.3%
[23]
  viability, T/C: 16%
[24]
  viability, T/C: 17.1%
[9]
  viability, T/C: 28.2%
[10]
  viability, T/C: 23.2%
[11]
  viability, T/C: 18%
[12]
  viability, T/C: 13.1%
[25]
  viability, T/C: 9.8%
[26]
  viability, T/C: 4.51%
[13]
  viability, T/C: 22.9%
[14]
  viability, T/C: 16.7%
[15]
  viability, T/C: 11.5%
[16]
  viability, T/C: 8.53%
[27]
  viability, T/C: 4.72%
[28]
  viability, T/C: 3.12%
[17]
  viability, T/C: 11.3%
[18]
  viability, T/C: 7.13%
[19]
  viability, T/C: 5.99%
[20]
  viability, T/C: 5.42%
[29]
  viability, T/C: 3.44%
[30]
  viability, T/C: 1.71%
